In patent publication US11969506B2, “Lipid nanoparticle formulation” (ModernaTX, Inc., priority 2017, dated 2024):

Columns and labels:
[1] = tested on: HeLa cells; experiment: Luciferase activity in HeLa cells transfected with mRNA-lipoplexes in the presence of bioactive lipids (FIGS. 9A-9C, 9F); format: cell-based
Description: FIG. 9A is a graph illustrating luciferase activity in HeLa cells transfected with mRNA-lipoplexes at a dose of 50 ng mRNA in the presence of bioactive lipids (black) normalized to mRNA-lipoplex only control (red), which was set at 100%. Data represented as mean±SEM; n=3. […] FIG. 9B is a graph illustrating luciferase activity in HeLa cells transfected with mRNA-lipoplexes at a dose of 50 ng mRNA in the presence of varying concentrations of MK-571 (blue) relative to mRNA-lipoplex only control (red). Data represented as mean±SD; n=3. […] FIG. 9C is a graph illustrating luciferase activity in HeLa cells transfected with mRNA-lipoplexes at a dose of 50 ng mRNA in the presence of varying concentrations of Arachidonic Acid (blue) relative to mRNA-lipoplex only control (red). Data represented as mean±SD; n=3. […] FIG. 9F is a graph illustrating luciferase activity in HeLa cells transfected with mRNA-lipoplexes at a dose of 50 ng mRNA in the presence of varying concentrations of MK-571 or its analogues, Montelukast, Pranlukast, and Zafirlukast relative to mRNA-lipoplex only control. Data represented as mean±SD; n=3.

[2] = tested on: HeLa cells; experiment: Luciferase activity in HeLa cells transfected using LNPs with MK-571 (FIGS. 9D, 9E); format: cell-based; settings: 24 hr pre-incubation with MK-571 (5 μM), increasing doses of mRNA
Description: FIG. 9D is a graph illustrating luciferase activity at increasing doses of mRNA in HeLa cells transfected using LNPs, with and without 24 hr pre-incubation with MK-571 (5 μM). Data represented as mean±SD; n=3.
FIG. 9E is a graph illustrating luciferase activity at increasing doses of mRNA in HeLa cells transfected using LNPs and MK-571 loaded LNPs. Data represented as mean±SD; n=3.

Compound | protein expression relative to mRNA-lipoplex only control ([1]; 50 ng mRNA, concentration of 5 μM) | enhancement of protein expression over the control ([1]; mRNA-lipoplexes 50 ng mRNA, lipoplex only control set at 100%) | transfection (luciferase activity) using LNPs [2] | luciferase activity (protein expression) relative to mRNA-lipoplex only control ([1]; 50 ng mRNA, varying concentrations)
CN(C)C(=O)CCSC(SCCC(=O)O)c1cccc(/C=C/c2ccc3ccc(Cl)cc3n2)c1 (stereo not shown) [MK-571] | doubling the protein expression | approximately 40% | able to enhance transfection at all doses of mRNA | –
CCCCC/C=C\C/C=C\C/C=C\C/C=C\CCCC(=O)O [Arachidonic Acid] | – | – | – | failed to elicit improvement in protein expression
